This note sets out measurements from US20240083896A1, “Nitrogen Containing 2,3-Dihydroquinazolinone Compounds as Nav1.8 Inhibitors” (GlaxoSmithKline Intellectual Property Development Limited, priority 2020, published 2024).

Molecules are shown by their SMILES.

human Nav1.8, sequence (Q9Y5Y9 whole entry): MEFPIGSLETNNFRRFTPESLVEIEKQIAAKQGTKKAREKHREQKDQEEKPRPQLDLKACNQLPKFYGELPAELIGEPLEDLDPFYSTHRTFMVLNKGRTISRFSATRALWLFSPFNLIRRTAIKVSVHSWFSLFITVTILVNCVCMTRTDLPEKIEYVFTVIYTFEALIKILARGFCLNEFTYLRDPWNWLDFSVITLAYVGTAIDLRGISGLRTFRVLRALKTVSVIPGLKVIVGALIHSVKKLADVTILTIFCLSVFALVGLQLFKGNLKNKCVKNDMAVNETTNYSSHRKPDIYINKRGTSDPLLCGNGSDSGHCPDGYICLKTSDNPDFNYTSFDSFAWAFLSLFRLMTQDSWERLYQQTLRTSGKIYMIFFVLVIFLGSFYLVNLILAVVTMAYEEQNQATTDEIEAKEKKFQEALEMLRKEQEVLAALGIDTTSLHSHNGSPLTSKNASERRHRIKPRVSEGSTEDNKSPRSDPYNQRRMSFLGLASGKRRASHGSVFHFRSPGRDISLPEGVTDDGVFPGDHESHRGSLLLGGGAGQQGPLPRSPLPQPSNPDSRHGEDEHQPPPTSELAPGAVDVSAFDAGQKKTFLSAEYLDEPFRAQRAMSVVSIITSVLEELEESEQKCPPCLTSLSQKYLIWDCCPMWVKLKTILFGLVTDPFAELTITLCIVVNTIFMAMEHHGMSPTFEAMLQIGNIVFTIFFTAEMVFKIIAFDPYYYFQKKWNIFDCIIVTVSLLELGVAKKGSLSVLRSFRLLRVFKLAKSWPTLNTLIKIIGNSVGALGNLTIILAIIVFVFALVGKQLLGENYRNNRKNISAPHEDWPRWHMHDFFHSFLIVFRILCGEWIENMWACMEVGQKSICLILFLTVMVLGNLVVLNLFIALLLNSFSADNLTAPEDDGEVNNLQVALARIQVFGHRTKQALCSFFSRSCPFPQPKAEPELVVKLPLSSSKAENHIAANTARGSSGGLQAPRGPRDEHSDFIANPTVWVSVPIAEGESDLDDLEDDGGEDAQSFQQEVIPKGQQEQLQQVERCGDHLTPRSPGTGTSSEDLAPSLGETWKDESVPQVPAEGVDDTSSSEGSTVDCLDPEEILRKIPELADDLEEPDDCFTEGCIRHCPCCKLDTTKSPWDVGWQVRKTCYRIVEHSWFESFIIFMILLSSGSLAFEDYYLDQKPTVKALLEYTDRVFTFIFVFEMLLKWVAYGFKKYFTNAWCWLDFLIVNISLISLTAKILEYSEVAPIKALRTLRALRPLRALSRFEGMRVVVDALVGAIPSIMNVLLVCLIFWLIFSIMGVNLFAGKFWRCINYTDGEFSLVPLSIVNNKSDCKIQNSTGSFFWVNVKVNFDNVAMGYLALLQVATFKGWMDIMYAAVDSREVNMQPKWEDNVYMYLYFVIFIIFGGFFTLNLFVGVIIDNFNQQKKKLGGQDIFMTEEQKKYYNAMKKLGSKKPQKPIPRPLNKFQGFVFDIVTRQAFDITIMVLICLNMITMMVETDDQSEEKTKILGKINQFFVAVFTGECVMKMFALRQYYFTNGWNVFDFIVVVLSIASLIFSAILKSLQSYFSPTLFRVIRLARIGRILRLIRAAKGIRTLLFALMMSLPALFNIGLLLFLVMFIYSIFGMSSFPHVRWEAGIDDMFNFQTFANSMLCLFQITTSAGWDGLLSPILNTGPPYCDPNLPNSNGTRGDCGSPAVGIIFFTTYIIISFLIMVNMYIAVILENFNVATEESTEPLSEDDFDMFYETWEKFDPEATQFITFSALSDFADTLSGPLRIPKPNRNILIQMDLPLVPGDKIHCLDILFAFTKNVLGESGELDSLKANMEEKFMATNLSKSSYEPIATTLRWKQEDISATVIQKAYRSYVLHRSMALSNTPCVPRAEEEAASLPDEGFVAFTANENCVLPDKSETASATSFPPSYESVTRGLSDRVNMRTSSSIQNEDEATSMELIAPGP
human Nav1.8, sequence (Q07699 19-218 partner): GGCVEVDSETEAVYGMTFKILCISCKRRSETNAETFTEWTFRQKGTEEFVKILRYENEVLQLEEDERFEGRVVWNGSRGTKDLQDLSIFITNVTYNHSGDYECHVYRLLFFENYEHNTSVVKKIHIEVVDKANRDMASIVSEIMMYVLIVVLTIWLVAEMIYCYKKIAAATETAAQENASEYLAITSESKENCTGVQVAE

This assay concerns the target human Nav1.8 (Homo sapiens (Human), UniProt Q9Y5Y9). The assay is described as follows: QPatch 48 HTX electrophysiology assay, half inactivation state voltage protocol (V1/2), HEK293-Nav1.8 cells. It counts as cell-based. The following applies: HEK293 cells expressing human Nav1.8, human Navβ1 and human TREK1; V1/2 protocol, P2 current; IC50 in molar; average where more than one run. The method, then:
Human embryonic kidney 293 cells (HEK293) expressing human Nav1.8, human Navβ1 and human TREK1 (HEK293-Nav1.8) were grown at 37° C., 5% CO2 in 150 cm^2 flasks. HEK293-Nav1.8 were passaged every 2-3 days into T175 cell culture flasks when confluency reached 80-90%.
Pharmacological assessment of the compounds of the invention was performed using HEK293-Nav1.8 in combination with an assay developed on the QPatch 48 HTX electrophysiological system. HEK293-Nav1.8 were prepared on the day of use by removing culture media, washing in DPBS, adding Accutase (2 ml to cover the surface, aspirate 1 ml then 1.5 min at 37° C.) followed by addition of CHO-SFM II to stop the enzyme digestion and in order to obtain a suspension of 3×10^6 cell/mL.
Compound was prepared in an extracellular solution of the following composition: NaCl (145 mM), KCl (4 mM), CaCl2 (2 mM), MgCl2 (2 mM), HEPES (1 mM), Glucose (10 mM), pH 7.4 with NaOH Osmolality 300 mOsM/L. The intracellular solution was used of the following composition: CsF (115 mM), CsCl (20 mM), NaCl (5 mM), EGTA (10 mM), HEPES (10 mM), Sucrose (20 mM), pH 7.2 with CsOH Osmolality 310 mOsm/L.
Utilizing the voltage-clamp mode in the QPatch 48 HTX system a half inactivation state voltage protocol (V1/2) was used to determine pharmacological activity of compounds of the invention at Nav1.8 ion channels. A V1/2 protocol was utilized with the following voltage steps: a holding voltage of −100 mV was established followed by a 20 ms voltage step to 0 mV (P1), followed by an inactivating voltage step at −46 mV for 8 seconds, followed by a step to −100 mV for 20 ms, before a 20 ms step to 0 mV (P2) before returning to the holding voltage of −100 mV. This voltage protocol was repeated at a frequency of 0.07 Hz., current magnitude was quantified at the P2 step throughout the recording. Inhibition of the measured current amplitude with the compounds of the invention was analyzed by fitting a 4-8 point dose-response curve allowing determination of the fifty percent inhibition concentration (IC50). Within the QPatch HTX software, P2 current was normalized according to measurements made at baseline after compound and after positive reference compound and fit to the following equation: […]
To assess current run-down over the course of the experiment vehicle-only wells were utilized and the normalized current with vehicle-only (n.IVEH) was determined. To correct the compound response for run-down, the currents were corrected according the following formula: […]
Compounds of the invention were tested for activity against […]. Potency of the compounds of the invention is reported as a pIC50 value. The pIC50 value is the negative log of the IC50 value, wherein the IC50 value is the half maximal inhibitory concentration measured in molar (M). For compounds tested in more than one experimental run, the pIC50 value is reported as an average.
(In general: The patch-clamp technique gives a direct electrical read-out from membranes.)
Turning to `Cc1cc(F)ccc1N1CN(c2ccc(=O)[nH]c2C)C(=O)c2cnc(C#N)cc21` [Example 19, 1-(4-Fluoro-2-methylphenyl)-3-(2-methyl-6-oxo-1,6-dihydropyridin-3-yl)-4-oxo-1,2,3,4-tetrahydropyrido[4,3-d]pyrimidine-7-carbonitrile], the “[Nav1.8] pIC50” value came to 5.4.
Turning to `CCc1cc(F)ccc1N1CN(c2ccc(=O)[nH]c2C)C(=O)c2cc(C(F)(F)F)ncc21` [Example 14, 1-(2-Ethyl-4-fluorophenyl)-3-(2-methyl-6-oxo-1,6-dihydropyridin-3-yl)-6-(trifluoromethyl)-2,3-dihydropyrido[3,4-d]pyrimidin-4(1H)-one], the “[Nav1.8] pIC50” value amounted to 7.1.
With `Cc1[nH]c(=O)ccc1N1CN(c2ccc(F)c(F)c2C)c2cnc(C(F)(F)F)cc2C1=O` [Example 17, 1-(3,4-Difluoro-2-methylphenyl)-3-(2-methyl-6-oxo-1,6-dihydropyridin-3-yl)-6-(trifluoromethyl)-2,3-dihydropyrido[3,4-d]pyrimidin-4(1H)-one] the figure was 7.2; with `Cc1cc(OC(F)(F)F)ccc1N1CN(c2cc(F)c(=O)[nH]c2C)C(=O)c2cc(C(F)(F)F)ncc21` [Example 21, 3-(5-Fluoro-2-methyl-6-oxo-1,6-dihydropyridin-3-yl)-1-(2-methyl-4-(trifluoromethoxy)phenyl)-6-(trifluoromethyl)-2,3-dihydropyrido[3,4-d]pyrimidin-4(1H)-one], 7.4; with `Cc1[nH]c(=O)ccc1N1CN(c2ccc(F)cc2C(C)C)c2cnc(C(F)(F)F)cc2C1=O` [Example 5, 1-(4-Fluoro-2-isopropylphenyl)-3-(2-methyl-6-oxo-1,6-dihydropyridin-3-yl)-6-(trifluoromethyl)-2,3-dihydropyrido[3,4-d]pyrimidin-4(1H)-one], 7.2.
On to `Cc1cc(F)ccc1N1CN(c2cc(F)c(=O)[nH]c2C)C(=O)c2cc(C(F)(F)F)ncc21` [Example 11, 3-(5-Fluoro-2-methyl-6-oxo-1,6-dihydropyridin-3-yl)-1-(4-fluoro-2-methylphenyl)-6-(trifluoromethyl)-2,3-dihydropyrido[3,4-d]pyrimidin-4(1H)-one], for which the “[Nav1.8] pIC50” value is given as 6.5.
On to `CCc1cc(F)ccc1N1CN(c2ccc(=O)[nH]c2C)C(=O)c2cnc(C(F)(F)F)cc21` [Example 20, 1-(2-Ethyl-4-fluorophenyl)-3-(2-methyl-6-oxo-1,6-dihydropyridin-3-yl)-7-(trifluoromethyl)-2,3-dihydropyrido[4,3-d]pyrimidin-4(1H)-one], for which the “[Nav1.8] pIC50” value amounted to 7.1.
Consider `Cc1cc(F)ccc1N1CN(c2ccc(=O)[nH]c2C)C(=O)c2cnc(Cl)cc21` [Example 18, 7-Chloro-1-(4-fluoro-2-methylphenyl)-3-(2-methyl-6-oxo-1,6-dihydropyridin-3-yl)-2,3-dihydropyrido[4,3-d]pyrimidin-4(1H)-one], for which the “[Nav1.8] pIC50” value is listed as 6.6.
`Cc1c[n+]([O-])ccc1N1CN(c2ccc(OC(F)(F)F)cc2C)c2cnc(C(F)(F)F)cc2C1=O` [Example 23, 3-Methyl-4-(1-(2-methyl-4-(trifluoromethoxy)phenyl)-4-oxo-6-(trifluoromethyl)-1,4-dihydropyrido[3,4-d]pyrimidin-3(2H)-yl)pyridine 1-oxide]: the “[Nav1.8] pIC50” value is 6.7.
For `Cc1cc(OC(F)(F)F)ccc1N1CN(c2ccc(=O)[nH]c2C)C(=O)c2cc(C(F)(F)F)ncc21` [Example 16, 1-(2-Methyl-4-(trifluoromethoxy)phenyl)-3-(2-methyl-6-oxo-1,6-dihydropyridin-3-yl)-6-(trifluoromethyl)-2,3-dihydropyrido[3,4-d]pyrimidin-4(1H)-one], the “[Nav1.8] pIC50” value came to 7.9.
Consider `Cc1cc(F)ccc1N1CN(c2ccc(=O)[nH]c2C)C(=O)c2cc(Cl)ncc21` [Example 15, 6-Chloro-1-(4-fluoro-2-methylphenyl)-3-(2-methyl-6-oxo-1,6-dihydropyridin-3-yl)-2,3-dihydropyrido[3,4-d]pyrimidin-4(1H)-one], for which the “[Nav1.8] pIC50” value came out at 6.6.
With `Cc1cc(F)ccc1N1CN(c2ccc(=O)[nH]c2C)C(=O)c2nc(C(F)(F)F)cnc21` [Example 8, 1-(4-Fluoro-2-methylphenyl)-3-(2-methyl-6-oxo-1,6-dihydropyridin-3-yl)-6-(trifluoromethyl)-2,3-dihydropteridin-4(1H)-one], the “[Nav1.8] pIC50” value amounted to 5.1.
With `Cc1[nH]c(=O)ccc1N1CN(c2ccc(F)cc2C(C)C)c2ccc(Cl)nc2C1=O` [Example 9, 6-Chloro-1-(4-fluoro-2-isopropylphenyl)-3-(2-methyl-6-oxo-1,6-dihydropyridin-3-yl)-2,3-dihydropyrido[3,2-d]pyrimidin-4(1H)-one] the figure was 5.8; with `Cc1cc(F)ccc1N1CN(c2ccc(=O)[nH]c2C)C(=O)c2cc(C#N)ncc21` [Example 22, 1-(4-Fluoro-2-methylphenyl)-3-(2-methyl-6-oxo-1,6-dihydropyridin-3-yl)-4-oxo-1,2,3,4-tetrahydropyrido[3,4-d]pyrimidine-6-carbonitrile], 5.4.
`Cc1cc(F)ccc1N1CN(c2ccc(=O)[nH]c2C)C(=O)c2cnc(C(F)(F)F)cc21` [Example 4, 1-(4-Fluoro-2-methylphenyl)-3-(2-methyl-6-oxo-1,6-dihydropyridin-3-yl)-7-(trifluoromethyl)-2,3-dihydropyrido[4,3-d]pyrimidin-4(1H)-one]: the “[Nav1.8] pIC50” value was determined as 6.8.
Turning to `Cc1[nH]c(=O)ccc1N1CN(c2ccc(F)cc2C(C)C)c2cnc(Cl)cc2C1=O` [Example 3, 6-Chloro-1-(4-fluoro-2-isopropylphenyl)-3-(2-methyl-6-oxo-1,6-dihydropyridin-3-yl)-2,3-dihydropyrido[3,4-d]pyrimidin-4(1H)-one], the “[Nav1.8] pIC50” value stood at 7.
Then `Cc1cc(F)ccc1N1CN(c2ccc(=O)[nH]c2C)C(=O)c2cnc(C(F)(F)F)nc21` [Example 2, 1-(4-Fluoro-2-methylphenyl)-3-(2-methyl-6-oxo-1,6-dihydropyridin-3-yl)-7-(trifluoromethyl)-2,3-dihydropyrimido[4,5-d]pyrimidin-4(1H)-one], with 6.
Then `Cc1cc(F)ccc1N1CN(c2ccc(=O)[nH]c2C)C(=O)c2ncc(C(F)(F)F)nc21` [Example 7, 1-(4-Fluoro-2-methylphenyl)-3-(2-methyl-6-oxo-1,6-dihydropyridin-3-yl)-7-(trifluoromethyl)-2,3-dihydropteridin-4(1H)-one], with 5.4.
For `Cc1cc(F)ccc1N1CN(c2ccc(=O)[nH]c2C)C(=O)c2ccncc21` [Example 12, 1-(4-Fluoro-2-methylphenyl)-3-(2-methyl-6-oxo-1,6-dihydropyridin-3-yl)-2,3-dihydropyrido[3,4-d]pyrimidin-4(1H)-one], the “[Nav1.8] pIC50” value came out at 5.3.
With `CCc1c(N2CN(c3ccc(=O)[nH]c3C)C(=O)c3cc(C(F)(F)F)ncc32)ccc(F)c1F` [Example 10, 1-(2-Ethyl-3,4-difluorophenyl)-3-(2-methyl-6-oxo-1,6-dihydropyridin-3-yl)-6-(trifluoromethyl)-2,3-dihydropyrido[3,4-d]pyrimidin-4(1H)-one] the figure was 7.5; with `Cc1cc(F)ccc1N1CN(c2ccc(=O)[nH]c2C)C(=O)c2ncc(C(F)(F)F)cc21` [Example 1, 1-(4-Fluoro-2-methylphenyl)-3-(2-methyl-6-oxo-1,6-dihydropyridin-3-yl)-7-(trifluoromethyl)-2,3-dihydropyrido[3,2-d]pyrimidin-4(1H)-one], 5.9; with `Cc1cc(F)ccc1N1CN(c2ccc(=O)[nH]c2C)C(=O)c2cc(C(F)(F)F)ncc21` [Example 6, 1-(4-Fluoro-2-methylphenyl)-3-(2-methyl-6-oxo-1,6-dihydropyridin-3-yl)-6-(trifluoromethyl)-2,3-dihydropyrido[3,4-d]pyrimidin-4(1H)-one], 7.
